Source: patent publication US8487103B2 (Roche Palo Alto LLC, priority 2009, dated 2013)
pIC50: −log10 of the molar value. Counter-ions that a name gives are not always drawn.

Assays:
[1] = target: T1, HCV polymerase (NS5B570n-Con1) (Hepatitis C virus genotype 1b, UniProt Q9WMX2); experiment: HCV NS5B RNA Polymerase Activity; type: biochemical, HCV Con1 strain
T1 construct: contains a 21 amino acid deletion at the C-terminus relative to the full-length HCV polymerase; 6-histidine (N); made in house; host or cells: E. coli BL21(DE) pLysS, plasmid pET 17b
Protocol: The enzymatic activity of HCV polymerase (NS5B570n-Con1) was measured as the incorporation of radiolabeled nucleotide monophosphates into acid insoluble RNA products. Unincorporated radiolabeled substrate was removed by filtration and scintillant was added to the washed and dried filter plate containing radiolabeled RNA product. The amount of RNA product generated by NS5B570-Con1 at the end of the reaction was directly proportional to the amount of light emitted by the scintillant.
The N-terminal 6-histidine tagged HCV polymerase, derived from HCV Con1 strain, genotype 1b (NS5B570n-Con1) contains a 21 amino acid deletion at the C-terminus relative to the full-length HCV polymerase and was purified from E. coli strain BL21(DE) pLysS. The construct, containing the coding sequence of HCV NS5B Con1 (GenBank accession number AJ242654) was inserted into the plasmid construct pET 17b, downstream of a T7 promoter expression cassette and transformed into E. coli. A single colony was grown overnight as a starter culture and later used inoculate 10 L of LB media supplemented with 100 μg/mL ampicillin at 37° C. Protein expression was induced by the addition of 0.25 mM isopropyl-β-D-thiogalactopyranoside (IPTG) when optical density at […] of the culture was between 0.6 and 0.8 and cells were harvested after 16 to 18 h at 30° C. NS5B570n-Con1 was purified to homogeneity using a three-step protocol including subsequent column chromatography on Ni-NTA, SP-Sepharose HP and Superdex 75 resins.
Each 50 μL enzymatic reaction contained 20 nM RNA template derived from the complementary sequence of the Internal Ribosome Entry Site (cIRES), 20 nM NS5B570n-Con1 enzyme, 0.5 μCi of tritiated UTP (Perkin Elmer catalog no. TRK-412; specific activity: 30 to 60 Ci/mmol; stock solution concentration from 7.5×10^−5 M to 20.6×10^−6 M), 1 μM each ATP, CTP, and GTP, 40 mM Tris-HCl pH 8.0, 40 mM NaCl, 4 mM DTT (dithiothreitol), 4 mM MgCl2, and 5 μl of compound serial diluted in DMSO. Reaction mixtures were assembled in 96-well filter plates (cat #MADVN0B, Millipore Co.) and incubated for 2 h at 30° C. Reactions were stopped by addition of 10% final (v/v) trichloroacetic acid and incubated for 40 min at 4° C. Reactions were filtered, washed with 8 reaction volumes of 10% (v/v) trichloroacetic acetic acid, 4 reaction volumes of 70% (v/v) ethanol, air dried, and 25 μl of scintillant (Microscint 20, Perkin-Elmer) was added to each reaction well.
The amount of light emitted from the scintillant was converted to counts per minute (CPM) on a Topcount® plate reader (Perkin-Elmer, Energy Range: Low, Efficiency Mode Normal, Count Time: 1 min, Background Subtract: none, Cross talk reduction: Off).
Data was analyzed in Excel® (Microsoft) and ActivityBase® (Idbs®). The reaction in the absence of enzyme was used to determine the background signal, which was subtracted from the enzymatic reactions. Positive control reactions were performed in the absence of compound, from which the background corrected activity was set as 100% polymerase activity. All data was expressed as a percentage of the positive control. The compound concentration at which the enzyme-catalyzed rate of RNA synthesis was reduced by 50% (IC50) was calculated by fitting equation (i) to the data where“Y”
[formula] corresponds to the relative enzyme activity (in %), “% Min” is the residual relative activity at saturating compound concentration, “% Max” is the relative maximum enzymatic activity, “X” corresponds to the compound concentration, and “S” is the Hill coefficient (or slope).

[2] = test system: HCV replicon cells (2209-23), genotype 1b replicon; experiment: HCV Replicon Assay (Renilla luciferase reporter); type: cell-based, HCV genotype 1b; details: Hepatitis C virus, 72 h; cell line 2209-23, luciferase activity after three days

Structure (SMILES) | melting point | pIC50 [1] | pIC50 [2]
CC(C)(C)c1cc(-c2ccc[nH]c2=O)c2ncc(N3CCC(NS(C)(=O)=O)CC3)nc2c1 | 275 to 280 °C | – | –
COc1nc2c(-c3ccc[nH]c3=O)cc(C(C)(C)C)cc2cc1-c1ccc(NS(C)(=O)=O)cc1 [Compound I-1, N-{4-[6-tert-Butyl-2-methoxy-8-(2-oxo-1,2-dihydro-pyridin-3-yl)-quinolin-3-yl]-phenyl}-methanesulfonamide] | 274 to 276 °C | 8.10 | –
CC(C)(C)c1cc(-c2cc(F)c[nH]c2=O)c2ncc(-c3ccc(NS(C)(=O)=O)cc3)nc2c1 [Compound I-2, N-{4-[7-tert-Butyl-5-(5-fluoro-2-oxo-1,2-dihydro-pyridin-3-yl)-quinoxalin-2-yl]-phenyl}-methanesulfonamide] | > 300 °C | 7.51 | –
CC(C)(C)c1cc(-c2cc(F)c[nH]c2=O)c2ncc(N3CC[C@H](CNS(C)(=O)=O)C3)nc2c1 [Compound I-4, N-{(S)-1-[7-tert-Butyl-5-(5-fluoro-2-oxo-1,2-dihydro-pyridin-3-yl)-quinoxalin-2-yl]-pyrrolidin-3-ylmethyl}-methanesulfonamide] | 170 to 175 °C | 6.72 | –
CC(C)(C)c1cc(-c2cc(F)c[nH]c2=O)c2ncc(N3CCC(NS(C)(=O)=O)CC3)nc2c1 [Compound I-5] | 224 to 226 °C | 6.09 | –
CC(C)(C)c1cc(-c2ccc[nH]c2=O)c2ncc(-c3ccc(NS(C)(=O)=O)cc3)nc2c1 [Compound I-6, N-{4-[7-tert-Butyl-5-(2-oxo-1,2-dihydro-pyridin-3-yl)-quinoxalin-2-yl]-phenyl}-methanesulfonamide] | 260 to 263 °C | 9.00 | –
CC(C)(C)c1cc(-c2ccc[nH]c2=O)c2ncc(-c3ccc(NS(C)(=O)=O)cc3Cl)nc2c1 [Compound I-7] | 275 to 278 °C | 8.52 | –
CC(C)(C)c1cc(-c2cc(F)c[nH]c2=O)c2ncc(-c3ccc(NS(C)(=O)=O)cc3)cc2c1 [Compound I-12] | 208 to 210 °C | – | –
CC(C)(C)c1cc(-c2cc(F)c[nH]c2=O)c2ncc(N3CCC(NS(C)(=O)=O)CC3)cc2c1 [Compound I-13, N-{1-[6-tert-Butyl-8-(5-fluoro-2-oxo-1,2-dihydro-pyridin-3-yl)-quinolin-3-yl]-piperidin-4-yl}-methanesulfonamide] | 186 to 188 °C | 7.19 | –
COc1c(C(C)(C)C)cc(-c2ccc[nH]c2=O)c2ncc(N3CC(CNS(C)(=O)=O)C3)cc12 [Compound I-19, N-{1-[6-tert-Butyl-5-methoxy-8-(2-oxo-1,2-dihydro-pyridin-3-yl)-quinolin-3-yl]-azetidin-3-ylmethyl}-methanesulfonamide] | 177 to 180 °C | 8.52 | –
COc1c(C(C)(C)C)cc(-n2ccc(=O)[nH]c2=O)c2ncc(-c3ccc(NS(C)(=O)=O)cc3)cc12 [Compound I-21, N-{4-[6-tert-Butyl-8-(2,4-dioxo-3,4-dihydro-2H-pyrimidin-1-yl)-5-methoxy-quinolin-3-yl]-phenyl}-methanesulfonamide] | 277 to 281 °C | 8.66 | 9.52
COc1c(C(C)(C)C)cc(-c2ccc(CO)[nH]c2=O)c2ncc(-c3ccc(NS(C)(=O)=O)cc3)cc12 [Compound I-41, N-{4-[6-tert-Butyl-8-(6-hydroxymethyl-2-oxo-1,2-dihydro-pyridin-3-yl)-5-methoxy-quinolin-3-yl]-phenyl}-methanesulfonamide] | 293 to 295 °C | 9.70 | –
COc1c(C(C)(C)C)cc(-c2ccc(C)[nH]c2=O)c2ncc(OCCCNS(C)(=O)=O)cc12 [Compound I-45, N-{3-[6-tert-Butyl-5-methoxy-8-(6-methyl-2-oxo-1,2-dihydro-pyridin-3-yl)-quinolin-3-yloxy]-propyl}-methanesulfonamide] | – | 7.93 | –
COc1c(C(C)(C)C)cc(-c2ccc(C)[nH]c2=O)c2ncc(N3CC[C@H](CNS(C)(=O)=O)C3)cc12 [Compound I-46] | – | 9.05 | –
COc1[nH]c(=O)c(-c2cc(C(C)(C)C)c(OC)c3cc(-c4ccc(NS(C)(=O)=O)cc4)cnc23)cc1F [Compound I-47, N-{4-[6-tert-Butyl-8-(5-fluoro-6-methoxy-2-oxo-1,2-dihydro-pyridin-3-yl)-5-methoxy-quinolin-3-yl]-phenyl}-methanesulfonamide] | – | 7.89 | –
Cc1ccc(-c2nc(C(C)(C)C)cc3cc(-c4ccc(NS(C)(=O)=O)cc4)ccc23)c(=O)[nH]1 [Compound I-48, N-{4-[3-tert-Butyl-1-(6-methyl-2-oxo-1,2-dihydro-pyridin-3-yl)-isoquinolin-6-yl]-phenyl}-methanesulfonamide] | – | – | 7.56
COc1c(C(F)(F)F)cc(-c2ccc(C)[nH]c2=O)c2ncc(-c3ccc(NS(C)(=O)=O)cc3)cc12 [Compound I-49, N-{4-[5-Methoxy-8-(6-methyl-2-oxo-1,2-dihydro-pyridin-3-yl)-6-trifluoromethyl-quinolin-3-yl]-phenyl}-methanesulfonamidehydrobromide] | – | 9.15 | –
COc1ccc(-c2cc(C(F)(F)F)c(OC)c3cc(-c4ccc(NS(C)(=O)=O)cc4)cnc23)c(=O)[nH]1 [Compound I-50] | – | 9.22 | –
COc1c(C(F)(F)F)cc(-n2ccc(=O)[nH]c2=O)c2ncc(-c3ccc(NS(C)(=O)=O)cc3)cc12 [Compound I-51, N-{4-[8-(2,4-Dioxo-3,4-dihydro-2H-pyrimidin-1-yl)-5-methoxy-6-trifluoromethyl-quinolin-3-yl]-phenyl}-methanesulfonamide] | – | 8.42 | –
COc1c(C(C)(C)C)cc(-n2ccc(=O)[nH]c2=O)c2ncc(N3CC[C@H](CNS(C)(=O)=O)C3)cc12 [Compound I-52, N-{(S)-1-[6-tert-Butyl-8-(2,4-dioxo-3,4-dihydro-2H-pyrimidin-1-yl)-5-methoxy-quinolin-3-yl]-pyrrolidin-3-ylmethyl}-methanesulfonamide] | – | 8.46 | –
COc1c(CC(F)(F)F)cc(-c2ccc(C)[nH]c2=O)c2ncc(-c3ccc(NS(C)(=O)=O)cc3)cc12 [Compound I-53, N-{4-[5-Methoxy-8-(6-methyl-2-oxo-1,2-dihydro-pyridin-3-yl)-6-(2,2,2-trifluoro-ethyl)-quinolin-3-yl]-phenyl}-methanesulfonamide hydrobomide salt] | – | 8.02 | –
COc1ccc(-c2cc(CC(F)(F)F)c(OC)c3cc(-c4ccc(NS(C)(=O)=O)cc4)cnc23)c(=O)[nH]1 [Compound I-54, N-{4-[5-Methoxy-8-(6-methoxy-2-oxo-1,2-dihydro-pyridin-3-yl)-6-(2,2,2-trifluoro-ethyl)-quinolin-3-yl]-phenyl}-methanesulfonamide] | – | 8.66 | –
COc1c(CC(F)(F)F)cc(-n2ccc(=O)[nH]c2=O)c2ncc(-c3ccc(NS(C)(=O)=O)cc3)cc12 [Compound I-56, N-{4-[8-(2,4-Dioxo-3,4-dihydro-2H-pyrimidin-1-yl)-5-methoxy-6-(2,2,2-trifluoro-ethyl)-quinolin-3-yl]-phenyl}-methanesulfonamide] | – | 7.41 | –
COc1ccc(-c2cc(C(C)(C)C)cc3cc(-c4ccc(NS(C)(=O)=O)cc4)cnc23)c(=O)[nH]1 [Compound I-58] | – | 8.22 | –
COc1ccc(-c2cc(C(C)(C)C)cc3cc(N4CC[C@H](CNS(C)(=O)=O)C4)cnc23)c(=O)[nH]1 [Compound I-60, N-{(S)-1-[6-tert-Butyl-8-(6-methoxy-2-oxo-1,2-dihydro-pyridin-3-yl)-quinolin-3-yl]-pyrrolidin-3-ylmethyl}-methanesulfonamide] | – | – | 7.09
